# In patent EP4806892A1, “CEREBLON E3 UBIQUITIN LIGASE INHIBITOR” (GAN & LEE PHARMACEUTICALS CO., LTD., priority 2023, dated 2025):
# Molecular target: E3 ubiquitin ligase CRBN (Homo sapiens, UniProt Q96SW2)
# Assay: CRBN competitive binding assay (HTRF, thalidomide-XL665 displacement)
# Conditions: not given
# Method: CRBN binding activity test kit (CEREBLON BINDING KITS (PE, 64BD CRBN PEG)).
# The detection is based on homogeneous time-resolved fluorescence (HTRF) technology.
# This kit uses a europium-labeled GST antibody (GST Eu Cryptate Antibody) as the donor and XL665-labeled thalidomide (Thalidomide-Red reagent) as the receptor. The donor binds to the GST-tagged CRBN protein.
# The donor and acceptor were each diluted 50-fold using the buffer (PROTAC binding buffer 1) in the kit. The CRBN protein was diluted 45-fold. The 8 mM compound solution disclosed in the present invention was diluted 10-fold using the diluent (1 X diluent) in the kit, and then the dilutd solution was subjected to 5-fold gradient dilution of the diluent, diluted 7 times sequentially. […] The mixture was incubated at room temperature for 3 hours. The ratio of the acceptor and donor emission signals for each individual well was calculated.
# IC50 value was calculated based on compound concentration, Ratio, and coefficient of variation using GraphPad Prism.
row,Structure (SMILES),IC50 [µM]
1,O=C1CCN(c2cc3c(cc2F)N2CCNC[C@@H]2CCO3)C(=O)N1 [Example B13],4.45

# Same assay, conditions: competition with XL665-labeled thalidomide for GST-tagged CRBN protein, 3 hours at room temperature
row,Structure (SMILES),IC50 [µM]
1,O=C1CCC(c2ccc3c(c2)OC2(CCNCC2)CC3)C(=O)N1 (centres unmarked) [Example A4],0.55

# Same assay, conditions: competition with XL665-labeled thalidomide for GST-tagged CRBN protein, 3 hours at room temperature; read-out: IC50
row,Structure (SMILES),IC50 [µM]
1,"O=c1ccn(-c2ccc3c(c2)OC2(CCNCC2)CC3)c(=O)[nH]1 [Example A1, 1-(spiro[chroman-2,4'-piperidin]-7-yl)pyrimidine-2,4(1H,3H)-dione]",25.7
2,"O=C1CCN(c2ccc3c(c2)OC2(CCNCC2)CC3)C(=O)N1 [Example A2, 1-(spiro[chroman-2,4'-piperidin]-7-yl)dihydropyrimidine-2,4(1H,3H)-dione]",1.53
3,"O=C1CCC2(CC1)CCc1ccc(N3CCC(=O)NC3=O)cc1O2 [Example A3, 1-(4'-oxospiro[chroman-2,1'-cyclohexan]-7-yl)dihydropyrimidine-2,4(1H,3H)-dione]",0.59
4,"O=C1CCN(c2ccc3c(c2)OC2(CC3)CNC2)C(=O)N1 [Example A5, 1-(spiro[azetidine-3,2'-chroman]-7'-yl)dihydropyrimidine-2,4(1H,3H)-dione]",3.06
5,"O=C1CCN(c2ccc3c(c2)CCC2(CCNCC2)O3)C(=O)N1 [Example A6, 1-(spiro[chromate-2,4'-piperidin]-6-yl)dihydropyrimidine-2,4(1H,3H)-dione]",7.47
6,"O=C1CCN(c2ccc3c(c2)OCC2(CCNCC2)C3)C(=O)N1 [Example A7, 1-(spiro[benzopyran-3,4'-piperidin]-7-yl)dihydropyrimidine-2,4(1H,3H)-dione]",12.7
7,"O=C1CCN(c2ccc3c(c2)CC2(CCNCC2)CO3)C(=O)N1 [Example A8, 1-(spiro[benzopyran-3,4'-piperidin]-6-yl)dihydropyrimidine-2,4(1H,3H)-dione]",9.5
8,"O=C1CCN(c2ccc3c(c2)OCC32CCNCC2)C(=O)N1 [Example A9, 1-(2H-spiro[benzofuran-3,4'-piperidin]-6-yl)dihydropyrimidine-2,4(1H,3H)-dione]",11.5
9,"CN1CC2(CCNCC2)Oc2cc(N3CCC(=O)NC3=O)ccc21 [Example A10, 1-(4-methyl-3,4-dihydrospiro[benzo[b][1,4]oxazine-2,4'-piperidin]-7-yl)dihydropyrimidine-2,4(1H,3H)-dione]",0.91
10,"O=C1CCN(c2ccc3c(c2)OC2(CCNCC2)C3)C(=O)N1 [Example A11, 1-(3H-spiro[benzofuran-2,4'-piperidin]-6-yl)dihydropyrimidine-2,4(1H,3H)-dione]",6.15
11,"O=C1CCN(c2ccc3c(c2)CC2(CCNCC2)O3)C(=O)N1 [Example A12, 1-(3H-spiro[benzofuran-2,4'-piperidin]-5-yl)dihydropyrimidine-2,4(1H,3H)-dione]",13.3
12,"O=C1CCN(c2cccc3c2OCC32CCNCC2)C(=O)N1 [Example A13, 1-(2H-spiro[benzofuran-3,4'-piperidin]-7-yl)dihydropyrimidine-2,4(1H,3H)-dione]",28.8
13,"O=C1CCN(c2ccc3c(c2)CCC2(CNC2)O3)C(=O)N1 [Example A14, 1-(spiro(azetidine-3,2'-benzodihydropyran)-6'-yl)dihydropyrimidine-2,4(1H,3H)-dione]",8.36
14,O=C1CCN(c2ccc3c(c2)OCC2(CNC2)C3)C(=O)N1 [Example A15],9.08
15,"O=C1CCN(c2ccc3c(c2)CC2(CNC2)CO3)C(=O)N1 [Example A16, 1-(spiro[azetidine-3,3'-chroman]-6'-yl)dihydropyrimidine-2,4(1H,3H)-dione]",12.6
16,"O=C1CCN(c2ccc3c(c2)OCC32CCNCC2(F)F)C(=O)N1 (centres unmarked) [Example A17, 1-(3',3'-difluoro-2H-spiro[benzofuran-3,4'-piperidin]-6-yl)dihydropyrimidine-2,4(1H,3H)-dione]",1.73

# Second part, the molecule after the results:
row,IC50 [µM],Structure (SMILES)
1,5.84,"O=C1CCN(c2ccc3c(c2)OCCC2CNCCN32)C(=O)N1 (centres unmarked) [Example B1, 1-(2,3,4,4a,5,6-hexahydro-1H-benzo[b]pyrazino[1,2-d][1,4]oxazepin-9-yl)dihydropyrimidine-2,4(1H,3H)-dione]"
2,6.11,"O=C1CCN(c2ccc3c(c2)OCC[C@H]2CNCCN32)C(=O)N1 [Example B2, (S)-1-(2,3,4,4a,5,6-hexahydro-1H-benzo[b]pyrazino[1,2-d][1,4]oxazepin-9-yl)dihydropyrimidine-2,4(1H,3H)-dione]"
3,5.67,"O=C1CCN(c2ccc3c(c2)OCC[C@@H]2CNCCN32)C(=O)N1 [Example B3, (R)-1-(2,3,4,4a,5,6-hexahydro-1H-benzo[b]pyrazino[1,2-d][1,4]oxazepin-9-yl)dihydropyrimidine-2,4(1H,3H)-dione]"
4,5.49,"O=C1CCN(c2cnc3c(c2)OCC[C@H]2CNCCN32)C(=O)N1 [Example B4, (S)-1-(7,7a,8,9,10,11-hexahydro-6H-pyrazino[1,2-d]pyrido[3,2-b][1,4]oxazepin-3-yl)dihydropyrimidine-2,4(1H,3H)-dione]"
5,10.2,"O=C1CCN(c2cnc3c(c2)OCC[C@@H]2CNCCN32)C(=O)N1 [Example B5, (R)-1-(7,7a,8,9,10,11-hexahydro-6H-pyrazino[1,2-d]pyrido[3,2-b][1,4]oxirane-3-yl)dihydropyrimidine-2,4(1H,3H)-dione]"
6,24.3,"O=C1CCN(c2ccc3c(c2)NC(=O)CC2CNCCN32)C(=O)N1 (centres unmarked) [Example B6, 1-(6-oxo-1,2,3,4,4a,5,6,7-octahydrobenzo[b]pyrazino[1,2-d][1,4]diazepin-9-yl)dihydropyrimidine-2,4(1H,3H)-dione]"
7,3.81,"CN1CC[C@H]2CNCCN2c2ccc(N3CCC(=O)NC3=O)cc21 [Example B7, (S)-1-(7-methyl-1,2,3,4,4a,5,6,7-octahydrobenzo[b]pyrazino[1,2-d][1,4]diazepin-9-yl)dihydropyrimidine-2,4(1H,3H)-dione]"
8,10,"O=C1CCN(c2ccc3c(c2)COC[C@H]2CNCCN32)C(=O)N1 [Example B8, (R)-1-(1,2,3,4,4a,5-hexahydro-7H-benzo[e]pyrazino[2,1-c][1,4]oxazepin-9-yl)dihydropyrimidine-2,4(1H,3H)-dione]"
9,8.59,"O=C1CCN(c2ccc3c(c2)COC[C@@H]2CNCCN32)C(=O)N1 [Example B9, (S)-1-(1,2,3,4,4a,5-hexahydro-7H-benzo[e]pyrazino[2,1-c][1,4]oxazepin-9-yl)dihydropyrimidine-2,4(1H,3H)-dione]"
10,3.34,"O=C1CCN(c2ccc3c(c2)NC(=O)C2CNCCN32)C(=O)N1 (centres unmarked) [Example B10, 1-(5-oxo-2,3,4,4a,5,6-hexahydro-1H-pyrazino[1,2-a]quinoxalin-8-yl)dihydropyrimidine-2,4(1H,3H)-dione]"
11,3.76,"CN1CC2CNCCN2c2ccc(N3CCC(=O)NC3=O)cc21 (centres unmarked) [Example B11, 1-(6-methyl-2,3,4,4a,5,6-hexahydro-1H-pyrazino[1,2-a]quinoxalin-8-yl)dihydropyrimidine-2,4(1H,3H)-dione]"
12,2.26,COc1cc2c(cc1N1CCC(=O)NC1=O)OCC[C@H]1CN(C(C)=O)CCN21 [Example B12]
13,5.4,"COc1cc2c(cc1N1CCC(=O)NC1=O)OCC[C@H]1CNCCN21 [Example B14, (S)-1-(10-methoxy-2,3,4,4a,5,6-hexahydro-1H-benzo[b]pyrazino[1,2-d][1,4]oxazepin-9-yl)dihydropyrimidine-2,4(1H,3H)-dione]"
14,3.7,"O=C1CCN(c2cc3c(cc2Cl)N2CCNC[C@@H]2CCO3)C(=O)N1 [Example B15, (S)-1-(10-chloro-2,3,4,4a,5,6-hexahydro-1H-benzo[b]pyrazino[1,2-d][1,4]oxazepin-9-yl)dihydropyrimidine-2,4(1H,3H)-dione]"
